According to patent US9521848B2, “Tetrazolinone compound and use therefor” (Sumitomo Chemical Company, Limited, priority 2013, dated 2016):

What was measured:
[1] = test system: cotton aphid (Aphis gossypii); experiment: Cotton aphid control test on cucumber, spray (Test Example 19); assay type: in vivo; conditions: 500 ppm, 20 mL sprayed on cucumber with 30 aphids; surviving insects counted after 6 days
Procedure: A water dilution (test chemical solution) containing a surfactant prepared by adjusting so as to contain a predetermined concentration (500 ppm) of the present compound 21 was used as a test chemical solution. Thirty (30) heads of cotton aphid (Aphis gossypii) (including adults and larvae) were released on the leaves of cucumber (cultivar; […]) grown in a polyethylene cup until the first true leaf was developed. Next day, 20 mL of the above test chemical solution was sprayed. After 6 days, the number of the surviving insects was counted and the control value was calculated by the following equation. Control value (%)={1-(Cb×Tai)/(Cai×Tb)}×100 wherein symbols in the equation represent the followings: Cb: Number of insects before spraying chemical solution in untreated area; Cai: Number of surviving insects in untreated area; Tb: Number of insects before spraying chemical solution in treated area; and Tai: Number of surviving insects in treated area.

[2] = test system: wheat rust fungus (Puccinia recondita); experiment: Wheat rust control test, foliar spray before inoculation (Test Examples 3, 4, Comparative Test Example); assay type: in vivo; conditions: 200 ppm foliar spray, wheat (SHIROGANE), inoculated 5 days after spraying
Procedure: The control effect was evaluated by visually observing the area of lesion spots on each of test plants at the time of investigation, and comparing the area of lesion spots on a plant treated with the present compound with that on an untreated plant.
Each of plastic pots was filled with sandy loam and wheat (cultivar: SHIROGANE) was sowed and grown in a greenhouse for 9 days. Then, each water dilution containing a surfactant prepared by adjusting so as to contain a predetermined concentration (500 ppm) of any one compound of the present compounds 1, 18, 19, 20, 21, 27, 30, and 38 was sprayed over stems and leaves of the wheat so that it sufficiently adhered to the surface of the leaves of the wheat. After spraying, the plant was air-dried so as to dry the dilution on the surface of the leaves. After spraying, the plant was air-dried and cultivated at 20° C. for 5 days under illumination, and then inoculated by sprinkling with spores of wheat rust fungus (Puccinia recondita). After the inoculation, the plant was left to stand at 23° C. for one day under dark and high humidity condition, and cultivated under illumination at 20° C. for 8 days, and then the area of lesion spots was investigated.
Each of plastic pots was filled with sandy loam and wheat (cultivar: SHIROGANE) was sowed and grown in a greenhouse for 9 days. […]

| Structure (SMILES) | control value [1] [%] | area of lesion spots on the treated plant relative to that on an untreated plant [2] [%] |
| --- | --- | --- |
| Cc1ccc(-c2cnc(OCc3c(C)cccc3-n3nnn(C)c3=O)c(C)c2)cc1 [Present Compound 21] | ≥ 90 | – |
| Cc1cccc(-n2nnn(C)c2=O)c1COc1cncc(Oc2ccccc2)c1 [1-[2-{5-phenoxypyridin-3-yloxymethyl}-3-methylphenyl]-4-methyl-1,4-dihydrotetrazol-5-one] | – | ≥ 70 |
